Experimental findings from patent US20160039879A1, “NOVEL CYCLOSPORIN DERIVATIVES AND USES THEREOF” (S&T Global Inc., priority 2013, published 2016) are described below.

The nature of series [1]: Stability testing: epimerization of cyclosporin derivatives in methanol, monitored by HPLC. The following applies: Table 9, MeOH at 50° C.-58° C. Type of series: physicochemical.
The subject of series [2] is HCV replicon in cell line ET (luc-ubi-neo/ET), Huh7 human hepatoma cell line. Kind of series: HCV subgenomic replicon assay (luciferase end point). The following applies: Hepatitis C virus, Huh-7, Table 11, HCV replicon, read-out: Antiviral activity EC50. Format: cell-based. (A replicon is a self-replicating genome or part of one, used to study replication in cells.)
The subject of the next series is HIV-1IIIB. Kind of series: Anti-HIV cytoprotection assay, acute infection model in CEM-SS cells (MTS endpoint). Format: cell-based. The following applies: HIV-1IIIB in CEM-SS cells, 6-day incubation, read-out: Antiviral activity EC50. Here is the method: Anti-HIV activity of cyclosporine derivatives were evaluated by cytoprotection assay in an acute infection model using CEM-SS cells and either HIV-1IIIB or HIV-1 RF. Antiviral activity was determined as a reduction in virus-caused cytopathic effects when compounds prevent virus replication. Cytoprotection and compound cytotoxicity were evaluated using the tetrazollium dye MTS (Promega) to calculate cell viability following virus infection after 6-day incubation (Zhou G., et al., 2011, J. Med. Chem. 27, 7220-31; which is incorporated herein by reference).

One may read the EC50 as the concentration that produces a half-maximal response.

For the compound `C/C=C/C[C@@H](C)[C@@H](O)[C@H]1C(=O)N[C@@H](CC)C(=O)N(C)[C@H](CSCCN(CC)CC)C(=O)N(C)[C@@H](CC(C)(C)O)C(=O)N[C@@H](C(C)C)C(=O)N(C)[C@@H](CC(C)C)C(=O)N[C@@H](C)C(=O)N[C@H](C)C(=O)N(C)[C@@H](CC(C)C)C(=O)N(C)[C@@H](CC(C)C)C(=O)N(C)[C@@H](C(C)C)C(=O)N1C` (single isomer, unassigned) [Example 32, isomer B], the “Epimerization % after 168 hours” value in series [1] is given as 0%. Turning to `C/C=C/C[C@@H](C)[C@@H](O)[C@H]1C(=O)N[C@@H](CC)C(=O)N(C)[C@H](CSCCN(C)C)C(=O)N(C)[C@@H](CC(C)(C)O)C(=O)N[C@@H](C(C)C)C(=O)N(C)[C@@H](CC(C)C)C(=O)N[C@@H](C)C(=O)N[C@H](C)C(=O)N(C)[C@@H](CC(C)C)C(=O)N(C)[C@@H](CC(C)C)C(=O)N(C)[C@@H](C(C)C)C(=O)N1C` (single isomer, unassigned) [Example 31, isomer B], the “Epimerization % after 168 hours” value in series [1] is reported as 0%. Same read-out and setting: for `CC=CCC(C)C(O)C1C(=O)NC(CC)C(=O)N(C)C(CSCCC(CO)CCC)C(=O)N(C)C(CC(C)(C)O)C(=O)NC(C(C)C)C(=O)N(C)C(CC(C)C)C(=O)NC(C)C(=O)NC(C)C(=O)N(C)C(CC(C)C)C(=O)N(C)C(CC(C)C)C(=O)N(C)C(C(C)C)C(=O)N1C` [Example 105, [(S)-((3-(R)-(Hydroxymethyl)hexyl)thio)methyl-Sar]-3-[(γ-hydroxy)-N-MeLeu]-4-cyclosporin] the value was 0%.

As for `C/C=C/C[C@@H](C)[C@@H](O)[C@H]1C(=O)N[C@@H](CC)C(=O)N(C)[C@H](SCCCN(CC)CC)C(=O)N(C)[C@@H](CC(C)(C)O)C(=O)N[C@@H](C(C)C)C(=O)N(C)[C@@H](CC(C)C)C(=O)N[C@@H](C)C(=O)N[C@H](C)C(=O)N(C)[C@@H](CC(C)C)C(=O)N(C)[C@@H](CC(C)C)C(=O)N(C)[C@@H](C(C)C)C(=O)N1C` [[(R)-3-(N,N Diethylamino)propylthio-Sar]-3-[(γ-hydroxy)-NMeLeu]-4-cyclosporin], the EC50 in series [2] amounted to 70 nM. As to `C/C=C/C[C@@H](C)[C@@H](O)[C@H]1C(=O)N[C@@H](CC)C(=O)N(C)[C@H](CSCCN(C)C)C(=O)N(C)[C@@H](CC(C)(C)O)C(=O)N[C@@H](C(C)C)C(=O)N(C)[C@@H](CC(C)C)C(=O)N[C@@H](C)C(=O)N[C@H](C)C(=O)N(C)[C@@H](CC(C)C)C(=O)N(C)[C@@H](CC(C)C)C(=O)N(C)[C@@H](C(C)C)C(=O)N1C` (single isomer, unassigned; isomer b), the EC50 in the series with HIV-1IIIB turned out to be 118 nM.
